Counter-ions that a name gives are not always drawn.
How the values were obtained:
DU145 = assay: MTT-based cytotoxicity assay, DU145; details: Homo sapiens, DU-145, averages of at least two independent experiments, read-out: Cytotoxicity in different cell lines (IC50, μM) DU145
From the text: (§1) Human prostate cancer cell lines PC-3 and DU145, were purchased from American Type Culture Collection (ATCC) and used within 50 passages. PC-3a is a derivative of PC-3 that is resistant to chemo/radiotherapy, established in our lab and confirmed by genotyping. All cells were maintained in DMEM (Mediatech, Manassas, VA) supplemented with 10% fetal bovine serum (FBS) (Sigma-Aldrich, St. Louis, MO), 1% Glutamine (Mediatech, Manassas, VA), 1% antibiotics (Mediatech, Manassas, VA). Compounds for primary FP-based HTS screening were from Prestwick, Microsource, University of Kansas Center of Excellence in Chemical Methodologies & Library Development (KU CMLD, Lawrence, KS), and Chembridge libraries. Compounds for MTT and SPR validation experiment were purchased from Microsource (Gaylordsville, CT) and Hit2lead Company (San Diego, CA). Acridine analogues, compound 1–6, were from our in-house library (provided by Specialized Chemistry Center, University of Kansas, Lawrence, KS); compound 7–17 were synthesized as described in supplementary information. (–)-Gossypol was isolated from racemic gossypol as we previously described. ABT-263 and DMSO were purchased from Sigma. MTT-based cytotoxicity assay and western blot analysis was carried out according to our previous publications. The primary antibodies used were LC3B (#2775) (Cell signaling Technology, Danvers, MA) and β-actin (A5441) (Sigma).

Bcl-xL-Beclin 1 complex [1] = biological target: T1, Bcl-xL-Beclin 1 complex (Homo sapiens, UniProt Q07817); assay: FP-based high-throughput screening, primary screen; format: binding; details: first screen; 40 μM compound, 2.5 μM Bcl-xL, 400 nM 20-mer
T1 construct: made in house
Method in brief: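 Competitive fluorescence polarization binding assay for Bcl-xL–Beclin 1, run in 384-well format against compound libraries. Hits were reconfirmed in concentration-response FP: 6 doses from 5 μM to 160 μM or 8 doses from 0.5 μM to 60 μM.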

PC-3a = assay: MTT-based cytotoxicity assay, PC-3a; details: Homo sapiens, averages of at least two independent experiments, read-out: Cytotoxicity in different cell lines (IC50, μM) PC-3a
From the text: as §1

[2] = biological target: T2, Bcl-xL-Beclin 1 20-mer complex (Homo sapiens, UniProt Q07817); assay: FP competitive binding assay (disruption of Bcl-xL-20-mer complex); details: 2.5 μM Bcl-xL protein, 400 nM fluorescein-labeled 20-mer
T2 construct: made in house
Procedure: Figure 1 FP-based HTS for Beclin 1 mimetics (A) Schematic presentation of the Beclin 1 protein and sequences of five synthetic peptides modified from Beclin 1 BH3 peptide. Diagram of human Beclin 1 protein with different domains is shown in the bottom. BH3 domain is necessary and sufficient for interaction with Bcl-2/Bcl-xL. Amino acids in red are the critical residues for the binding. (B) Five fluorescein-labeled Beclin 1 BH3 peptides were tested for their binding ability to Bcl-xL protein in FP assay. Fluorescein-labeled Bak BH3 peptide was used as a positive control. Bcl-xL protein was titrated to a solution of 50 nM peptides. (C) Competitive binding assay with positive controls, ABT-263 and (–)-gossypol ((–)G). […] (D–E) HTS was performed with ~50000 compounds from Prestwick, Microsource, CMLD and Chembridge libraries. The four libraries were divided into two groups and screened separately. Compounds activity (percent of inhibition) of first screen (D) and second screen (E) were shown with Z′ value indicated on top. Plate median + 3SD was used as a threshold to determine the initial hits.
Bcl-xL protein was immobilized on the sensor chip with 10000 RU.
All N′-fluorescein-labeled peptides were purchased from Kansas State University (Manhattan, KS). […] 16mer Bak ([…]) sequence was from published literature. Bcl-xL protein (25 kDa, > 90% pure based on SDS–PAGE) was expressed and purified in Protein Product Group, University of Kansas. FP assays were carried out as described in our previous publication with some modified. […] Then, fluorescein-labeled peptide was added to each well with a final concentration of 50 nM and incubated at room temperature for 30 min. Anisotropy measurements were taken at room temperature using a BioTek Synergy H4 plate reader (Biotek, Winooski, VT) following the protocol recommended by the manufacture. The Kd was estimated by nonlinear regression to a one-site binding model using GraphPad Prism 5.0 (GraphPad, San Diego, CA). […] Compound solvent DMSO only was used as a negative control in the competition assay. After 2 h incubation, the plate was read and polarization was calculated.

Bcl-xL-Beclin 1 complex [3] = biological target: T1, Bcl-xL-Beclin 1 complex; assay: Concentration response FP reconfirmation of HTS hits; format: binding; details: hits of first screen; for inhibition at 5 µM: read-out: Dose-response (% Inhibition) 5 μM; for inhibition at 10 µM: read-out: Dose-response (% Inhibition) 10 μM; for inhibition at 20 µM: read-out: Dose-response (% Inhibition) 20 μM; for inhibition at 40 µM: read-out: Dose-response (% Inhibition) 40 μM; for inhibition at 80 µM: read-out: Dose-response (% Inhibition) 80 μM; for inhibition at 160 µM: read-out: Dose-response (% Inhibition) 160 μM
Procedure: Then the plates were read by Envision (Perkin Elmer, Waltham, MA). […] The hits were selected from library stocks and reconfirmed in a concentration response FP assay (6 doses ranging from 5 μM to 160 μM or 8 doses ranging from 0.5 μM to 60 μM).

T1 sequence (Q07817 whole entry, one chain of several): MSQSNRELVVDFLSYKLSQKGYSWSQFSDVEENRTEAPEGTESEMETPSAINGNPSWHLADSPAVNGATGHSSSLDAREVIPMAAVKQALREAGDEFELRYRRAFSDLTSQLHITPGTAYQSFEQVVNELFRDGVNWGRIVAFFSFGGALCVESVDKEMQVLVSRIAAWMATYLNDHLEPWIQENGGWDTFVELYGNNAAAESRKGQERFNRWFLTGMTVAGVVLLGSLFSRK
T2 sequence (Q07817 whole entry, one chain of several): as above

In the case of `Nc1ccc2cc3ccc(N)cc3nc2c1` [Compound A13, PROFLAVINE HEMISULFATE], the IC50 (DU145) is reported as 0.81 ± 0.51 µM, the “Primary Screen mP” value (Bcl-xL-Beclin 1 complex [1]) is reported as -3.2 mP and the inhibition at 40 µM (Bcl-xL-Beclin 1 complex [1]) is reported as 102%. For the same compound, the IC50 (PC-3a) was 0.68 ± 0.16 µM, the IC50 [2] was 4.84 µM and the Ki [2] was 0.84 µM. For the same compound, the inhibition at 5 µM (Bcl-xL-Beclin 1 complex [3]) was 55.9%, the inhibition at 10 µM (Bcl-xL-Beclin 1 complex [3]) was 65.8% and the inhibition at 20 µM (Bcl-xL-Beclin 1 complex [3]) was 101%. For the same compound, the inhibition at 40 µM (Bcl-xL-Beclin 1 complex [3]) was 102%, the inhibition at 80 µM (Bcl-xL-Beclin 1 complex [3]) was 102% and the inhibition at 160 µM (Bcl-xL-Beclin 1 complex [3]) was 102%.
`CCOc1ccc2nc3cc(N)ccc3c(N)c2c1` [Compound A15, ETHACRIDINE LACTATE] was tested, and the IC50 (DU145) was 10.5 ± 1.11 µM, the “Primary Screen mP” value (Bcl-xL-Beclin 1 complex [1]) was 83.5 mP and the inhibition at 40 µM (Bcl-xL-Beclin 1 complex [1]) was 37.9%. For the same compound, the IC50 (PC-3a) was 2.33 ± 0.99 µM, the IC50 [2] was 102 µM and the Ki [2] was 28 µM. The inhibition at 5 µM (Bcl-xL-Beclin 1 complex [3]) was -0.5%, the inhibition at 10 µM (Bcl-xL-Beclin 1 complex [3]) was 6.2% and the inhibition at 20 µM (Bcl-xL-Beclin 1 complex [3]) was 14.9%. The inhibition at 40 µM (Bcl-xL-Beclin 1 complex [3]) was 20%, the inhibition at 80 µM (Bcl-xL-Beclin 1 complex [3]) was 47.7% and the inhibition at 160 µM (Bcl-xL-Beclin 1 complex [3]) was 60.9%.
`CCN(CC)CCCC(C)Nc1c2ccc(Cl)cc2nc2ccc(OC)cc12` (stereo not drawn) [Compound A21, QUINACRINE HYDROCHLORIDE] was tested, and the IC50 (DU145) was 2.31 ± 0.39 µM, the “Primary Screen mP” value (Bcl-xL-Beclin 1 complex [1]) was 72.2 mP and the inhibition at 40 µM (Bcl-xL-Beclin 1 complex [1]) was 48.2%. The IC50 (PC-3a) was 0.8 ± 0.12 µM, the IC50 [2] was 48.7 µM and the Ki [2] was 13.2 µM. For the same compound, the inhibition at 5 µM (Bcl-xL-Beclin 1 complex [3]) was 14.5%, the inhibition at 10 µM (Bcl-xL-Beclin 1 complex [3]) was 26.7% and the inhibition at 20 µM (Bcl-xL-Beclin 1 complex [3]) was 38.6%. For the same compound, the inhibition at 40 µM (Bcl-xL-Beclin 1 complex [3]) was 47.9%, the inhibition at 80 µM (Bcl-xL-Beclin 1 complex [3]) was 58.3% and the inhibition at 160 µM (Bcl-xL-Beclin 1 complex [3]) was 66.3%.
